Experimental data: patent publication US11161828B2, “Class of bisquaternary ammonium compound as well as the preparative method and the use thereof” (WEST CHINA HOSPITAL, SICHUAN UNIVERSITY, priority 2018, dated 2021)

Legend:
[1] = system: Male New Zealand white rabbits; experiment: Muscle relaxation test in anesthetized rabbits with neuromuscular transmission monitor (TOF); type: in vivo, rabbit; settings: for ED (2 x ED95): Oryctolagus cuniculus; for ED (2 x ED95) / 2 × ED95: intravenous injection, propofol general anesthesia; for Onset time / Recovery time: i.v. 2×ED95 dose; for Onset time: onset = TOF=0; for Recovery time: recovery of muscle relaxation = TOF=90%
Procedure: Male New Zealand white rabbits weighing 2-3.5 kg were used as experimental animals for muscle relaxation test. The specific procedures were as follows: propofol emulsion was used to induce and maintain general anesthesia (induction dose: 10 mg/kg; maintenance dose: […]). Tracheal intubation was carried out and respiratory support was used.

human body = settings: cited from earlier work; for duration of muscle relaxation / action time: after single administration, clinical use

Molecule C[N+](CCOC(=O)OCOC(=O)CCC[N+]1(Cc2ccc(Cl)cc2Cl)CCCCC1)(Cc1ccc(Cl)cc1)Cc1ccc(Cl)c(Cl)c1 (stereo not drawn) [Compound 1] has an ED (2 x ED95) [1] of 0.5 mg/kg, an Onset time [1] of under 40 s and a Recovery time [1] of 4.2 ± 1.1 min.
Work on C[N+](CCOC(=O)OCOC(=O)CCC[N+]1(Cc2ccc([N+](=O)[O-])cc2[N+](=O)[O-])CCCCC1)(Cc1ccc([N+](=O)[O-])cc1)Cc1ccc([N+](=O)[O-])cc1 [Compound 5] yielded an ED (2 x ED95) [1] of 0.4 mg/kg, an Onset time [1] of under 40 s and a Recovery time [1] of 6.2 ± 1.4 min.
With C[N+](CCOC(=O)OCOC(=O)CCC[N+]1(Cc2ccccc2Br)CCCCC1)(Cc1ccccc1Br)Cc1ccccc1Br [Compound 8] the ED (2 x ED95) ([1]; iv) was 1.2 mg/kg, the Onset time [1] was under 40 s and the Recovery time [1] was 7.2 ± 1.8 min.
C[N+](CCCCOC(=O)OCOC(=O)C[N+]1(Cc2ccc([N+](=O)[O-])cc2)CCCCC1)(Cc1ccc([N+](=O)[O-])cc1)Cc1ccc(Cl)cc1Cl (stereo not drawn) [Compound 21] gave an ED (2 x ED95) [1] of 4 mg/kg, an Onset time [1] of under 40 s and a Recovery time [1] of 5.1 ± 1.1 min.
Work on C[N+](CCOC(=O)OCOC(=O)CCC[N+]1(Cc2c(F)c(F)c(F)c(F)c2F)CCCCC1)(Cc1c(F)c(F)c(F)c(F)c1F)Cc1c(F)c(F)c(F)c(F)c1F [Compound 6] yielded an ED (2 x ED95) [1] of 0.9 mg/kg, an Onset time [1] of under 40 s and a Recovery time [1] of 5.1 ± 2.1 min.
For C[N+](C)(C)CCOC(=O)CCC(=O)OCC[N+](C)(C)C [Succinylcholine, reference compound], the “action time (lasts for)” value (human body; in the human body) is given as 10 min, the ED (2 x ED95) ([1]; iv) is given as 1.8 mg/kg and the Onset time [1] is given as under 40 s. It also gave a Recovery time [1] of 12.3 ± 4.1 min.
In the case of CC(C[N+](C)(Cc1ccccc1)Cc1ccc([N+](=O)[O-])cc1)OC(=O)OCOC(=O)CCC[N+]1(Cc2ccc([N+](=O)[O-])cc2)CCCCC1 (stereo not drawn) [Compound 22], the ED (2 x ED95) ([1]; iv) is reported as 1.2 mg/kg, the Onset time [1] is reported as under 40 s and the Recovery time [1] is reported as 6.2 ± 1.4 min.
For CC(OC(=O)CCC[N+]1(Cc2ccc(Cl)cc2Cl)CCCCC1)OC(=O)OCC[N+](C)(Cc1ccc(Cl)cc1)Cc1ccc(Cl)c(Cl)c1 (stereo not drawn) [Compound 11], the Onset time [1] was under 40 s, the Recovery time [1] was 6.7 ± 2.6 min and the “2 × ED95” value [1] was 0.5 mg/kg.
For CC(OC(=O)CCC[N+]1(Cc2ccc([N+](=O)[O-])cc2)CCCCC1)OC(=O)OCC[N+](C)(Cc1ccccc1)Cc1ccc([N+](=O)[O-])cc1 (stereo not drawn) [Compound 14], the ED (2 x ED95) [1] was 2.4 mg/kg, the Onset time [1] was under 40 s and the Recovery time [1] was 4.2 ± 1.2 min.
C[N+](CCOC(=O)OCOC(=O)CCC[N+]1(Cc2ccc(Br)cc2)CCCCC1)(Cc1ccc(Br)cc1)Cc1ccc(Br)cc1 [Compound 7] showed an ED (2 x ED95) [1] of 1.2 mg/kg, an Onset time [1] of under 40 s and a Recovery time [1] of 5.2 ± 2.1 min.
C[N+](CCOC(=O)OCOC(=O)CCC[N+]1(Cc2ccc([N+](=O)[O-])cc2)CCCCC1)(Cc1ccc(Br)cc1)Cc1ccc([N+](=O)[O-])cc1 (stereo not drawn) [Compound 15] showed an ED (2 x ED95) [1] of 1.9 mg/kg, an Onset time [1] of under 40 s and a Recovery time [1] of 5.3 ± 2.1 min.
Work on C[N+](CCOC(=O)OCOC(=O)CCC[N+]1(Cc2c(F)cc(F)cc2F)CCCCC1)(Cc1ccc(F)cc1)Cc1c(F)cc(F)cc1F (stereo not drawn) [Compound 4] yielded an ED (2 x ED95) [1] of 0.4 mg/kg, an Onset time [1] of under 40 s and a Recovery time [1] of 4.4 ± 0.5 min.
For C[N+](CCOC(=O)OCOC(=O)CCC[N+]1(Cc2ccccc2)CCCCC1)(Cc1ccccc1)Cc1ccccc1 [Compound 20], the ED (2 x ED95) [1] was 2.4 mg/kg, the Onset time [1] was under 40 s and the Recovery time [1] was 6.9 ± 2.5 min.
For CC(OC(=O)CCC[N+]1(Cc2ccc(Cl)cc2Cl)CCCCC1)OC(=O)OCC[N+](C)(Cc1ccc(Cl)cc1)Cc1ccc(Cl)c(Cl)c1 (stereo not drawn) [Compound 10], the Onset time [1] was under 40 s, the Recovery time [1] was 4.2 ± 0.9 min and the “2 × ED95” value [1] was 0.7 mg/kg.
For C[N+](CCOC(=O)OCOC(=O)CCC[N+]1(Cc2ccc([N+](=O)[O-])cc2)CCCCC1)(Cc1ccc([N+](=O)[O-])cc1)Cc1ccc([N+](=O)[O-])cc1 [Compound 12], the ED (2 x ED95) [1] was 1.8 mg/kg, the Onset time [1] was under 40 s and the Recovery time [1] was 8.1 ± 0.2 min.
In the case of COc1ccc(C[C@@H]2c3cc(OC)c(OC)cc3CC[N@+]2(C)CCC(=O)OCCCCCOC(=O)CC[N@@+]2(C)CCc3cc(OC)c(OC)cc3[C@H]2Cc2ccc(OC)c(OC)c2)cc1OC [Cisatracurium, reference compound], the ED (2 x ED95) [1] is reported as 0.08 mg/kg, the Onset time [1] is reported as over 120 s and the Recovery time [1] is reported as 17.6 ± 3.2 min.
COc1ccc(C[N+](C)(CCCCOC(=O)OC(C)OC(=O)C[N+]2(Cc3ccc(OC)c(OC)c3)CCCCC2)Cc2ccc(OC)c(OC)c2)cc1OC (stereo not drawn) [Compound 24] showed an ED (2 x ED95) ([1]; iv) of 1.4 mg/kg, an Onset time [1] of under 40 s and a Recovery time [1] of 8.4 ± 1.9 min.
Molecule C[N+](CCOC(=O)OCOC(=O)CCC[N+]1(Cc2ccc(Br)c(Br)c2)CCCCC1)(Cc1ccc(Br)cc1)Cc1cccc(Cl)c1Cl (stereo not drawn) [Compound 3] has an ED (2 x ED95) [1] of 1.3 mg/kg, an Onset time [1] of under 40 s and a Recovery time [1] of 3.8 ± 0.4 min.
For COc1ccc(C[N+](C)(CCCC(C)OC(=O)OC(C)OC(=O)C[N+]2(Cc3ccc(OC)c(OC)c3)CCCCC2)Cc2ccc(OC)c(OC)c2)cc1OC (stereo not drawn) [Compound 25], the ED (2 x ED95) ([1]; iv) was 1.4 mg/kg, the Onset time [1] was under 40 s and the Recovery time [1] was 8.1 ± 2.9 min.
Molecule C[N+](CCOC(=O)OCOC(=O)CCC[N+]1(Cc2ccccc2)CCCCC1)(Cc1ccccc1)Cc1ccc([N+](=O)[O-])cc1 (stereo not drawn) [Compound 18] has an ED (2 x ED95) [1] of 1.9 mg/kg, an Onset time [1] of under 40 s and a Recovery time [1] of 7.2 ± 2.7 min.
For COc1ccc(C[N+](C)(Cc2ccc(OC)c(OC)c2)CC(C)OC(=O)OC(C)OC(=O)CCC[N+]2(Cc3ccc(OC)c(OC)c3)CCCCC2)cc1OC (stereo not drawn) [Compound 23], the ED (2 x ED95) ([1]; iv) was 1.2 mg/kg, the Onset time [1] was under 40 s and the Recovery time [1] was 7.8 ± 2.4 min.
Molecule C[N+](CCOC(=O)OCOC(=O)CCC[N+]1(Cc2ccc([N+](=O)[O-])cc2)CCCCC1)(Cc1ccccc1)Cc1ccc([N+](=O)[O-])cc1 (stereo not drawn) [Compound 13] has an ED (2 x ED95) [1] of 2.1 mg/kg, an Onset time [1] of under 40 s and a Recovery time [1] of 7.9 ± 1.9 min.
Work on CC(OC(=O)CCC[N+]1(Cc2ccc(Cl)cc2Cl)CCCCC1)OC(=O)OCC[N+](C)(Cc1ccc(Cl)cc1)Cc1ccc(Cl)c(Cl)c1 (stereo not drawn) [Compound 9] yielded an ED (2 x ED95) ([1]; iv) of 0.6 mg/kg, an Onset time [1] of under 40 s and a Recovery time [1] of 4.2 ± 1.1 min.
In the case of micuronium, the “duration of muscle relaxation / action time” value (human body) is given as 15 to 20 min.
In the case of C[N+](CCOC(=O)OCOC(=O)CCC[N+]1(Cc2ccc([N+](=O)[O-])cc2)CCCCC1)(Cc1ccccc1)Cc1ccccc1 [Compound 19], the ED (2 x ED95) [1] is reported as 2.2 mg/kg, the Onset time [1] is reported as under 40 s and the Recovery time [1] is reported as 7.1 ± 1.2 min.
In the case of C[N+](CCOC(=O)OCOC(=O)CCC[N+]1(Cc2ccc([N+](=O)[O-])cc2)CCCCC1)(Cc1ccc([N+](=O)[O-])cc1)Cc1ccc(Cl)c(Cl)c1 (stereo not drawn) [Compound 16], the ED (2 x ED95) [1] is reported as 2.2 mg/kg, the Onset time [1] is reported as under 40 s and the Recovery time [1] is reported as 5.2 ± 1.1 min.
In the case of CC(=O)O[C@H]1C[C@@H]2CC[C@@H]3[C@H](CC[C@@]4(C)[C@H]3C[C@H]([N+]3(C)CCCCC3)[C@@H]4OC(C)=O)[C@@]2(C)C[C@@H]1[N+]1(C)CCCCC1 [pancuronium], the “duration of muscle relaxation / action time” value (human body) is given as over 60 min.
